# Test results reported in ChEMBL document CHEMBL1255477, “In vitro properties of BAL30072, a novel siderophore sulfactam with activity against multiresistant gram-negative bacilli” (Antimicrob Agents Chemother, 2010).
# Activity calls are given as the source filed them. No cut-off for these calls is given here.
# Key:
# [1] = system: Pseudomonas aeruginosa; assay: Antimicrobial activity against Pseudomonas aeruginosa BA assessed as number of passages required for MIC to rise above 4 times original MIC; type: functional
# [2] = system: Pseudomonas aeruginosa; assay: Antimicrobial activity against Pseudomonas aeruginosa by broth dilution method; type: functional
# [3] = system: Stenotrophomonas maltophilia; assay: Antimicrobial activity against Stenotrophomonas maltophilia by broth dilution method; type: functional
# [4] = system: Proteus penneri; assay: Antimicrobial activity against Proteus penneri by broth dilution method; type: functional
# [5] = system: Serratia marcescens; assay: Antimicrobial activity against Serratia marcescens by broth dilution method; type: functional
# [6] = system: Proteus vulgaris; assay: Antimicrobial activity against Proteus vulgaris by broth dilution method; type: functional
# [7] = system: Providencia stuartii; assay: Antimicrobial activity against Providencia stuartii by broth dilution method; type: functional
# [8] = system: Enterobacteriaceae; assay: Antimicrobial activity against Enterobacteriaceae by broth dilution method; type: functional
# [9] = system: Klebsiella aerogenes; assay: Antimicrobial activity against Enterobacter aerogenes by broth dilution method; type: functional
# [10] = system: Klebsiella pneumoniae; assay: Antimicrobial activity against Klebsiella pneumoniae 1338665 assessed as number of passages required for MIC to rise above 4 times original MIC; type: functional
# [11] = system: Klebsiella oxytoca; assay: Antimicrobial activity against Klebsiella oxytoca by broth dilution method; type: functional
# [12] = system: Klebsiella pneumoniae; assay: Antimicrobial activity against Klebsiella pneumoniae by broth dilution method; type: functional
# [13] = system: Acinetobacter sp.; assay: Antimicrobial activity against Acinetobacter sp. by broth dilution method; type: functional
# [14] = system: Citrobacter freundii; assay: Antimicrobial activity against Citrobacter freundii by broth dilution method; type: functional
# [15] = system: Stenotrophomonas maltophilia; assay: Antimicrobial activity against Stenotrophomonas maltophilia 1AC736 assessed as number of passages required for MIC to rise above 4 times original MIC; type: functional
# [16] = system: Burkholderia sp.; assay: Antimicrobial activity against Burkholderia sp. by broth dilution method; type: functional
# [17] = system: Escherichia coli; assay: Antimicrobial activity against Escherichia coli by broth dilution method; type: functional
# [18] = system: Acinetobacter baumannii; assay: Antimicrobial activity against Acinetobacter baumannii HPA74510 assessed as number of passages required for MIC to rise above 4 times original MIC; type: functional
# [19] = system: Acinetobacter junii; assay: Antimicrobial activity against Acinetobacter junii 15218 assessed as number of passages required for MIC to rise above 4 times original MIC; type: functional
# [20] = system: Providencia rettgeri; assay: Antimicrobial activity against Providencia rettgeri by broth dilution method; type: functional
# [21] = system: Pseudomonas aeruginosa; assay: Antimicrobial activity against Pseudomonas aeruginosa 527 assessed as number of passages required for MIC to rise above 4 times original MIC; type: functional
# [22] = system: Proteus mirabilis; assay: Antimicrobial activity against Proteus mirabilis by broth dilution method; type: functional
# [23] = system: Pseudomonas aeruginosa; assay: Antimicrobial activity against Pseudomonas aeruginosa HPA10586 harboring beta-lactamase VIM-1 by broth dilution method; type: functional
# [24] = system: Pseudomonas aeruginosa; assay: Antimicrobial activity against Pseudomonas aeruginosa BA by broth dilution method; type: functional; conditions: Pseudomonas aeruginosa, BA; read-out: MIC
# [25] = system: Pseudomonas aeruginosa; assay: Antimicrobial activity against Pseudomonas aeruginosa HPA996 harboring beta-lactamase VIM-2 by broth dilution method; type: functional
# [26] = system: Pseudomonas aeruginosa; assay: microbe, parasite or virus in culture; conditions: 18S/H
# Description: Antimicrobial activity against Pseudomonas aeruginosa 18S/H harboring beta-lactamase Class C by broth dilution method
# [27] = system: Klebsiella pneumoniae; assay: Antimicrobial activity against Klebsiella pneumoniae 1357E harboring beta-lactamase TEM-10 by broth dilution method; type: functional
# [28] = system: Escherichia coli; assay: Antimicrobial activity against Escherichia coli nmcA harboring beta-lactamase NMCA by broth dilution method; type: functional
# [29] = system: Escherichia coli; assay: Antimicrobial activity against Escherichia coli Libyien harboring beta-lactamase CMY-2 by broth dilution method; type: functional
# [30] = system: Acinetobacter baumannii; assay: Antimicrobial activity against Acinetobacter baumannii HPA 327009 harboring beta-lactamase OXA-25 by broth dilution method; type: functional
# [31] = system: Enterobacter cloacae; assay: Antimicrobial activity against Enterobacter cloacae S9369 assessed as number of passages required for MIC to rise above 4 times original MIC; type: functional
# [32] = system: Pseudomonas aeruginosa; assay: Antimicrobial activity against mexAB-oprM protein and mexCD-oprJ deficient Pseudomonas aeruginosa PAO253 overexpressing MexEF-OprN gene by broth dilution method; type: functional
# [33] = system: Klebsiella pneumoniae; assay: Antimicrobial activity against Klebsiella pneumoniae CRE harboring beta-lactamase KPC-2 by broth dilution method; type: functional
# [34] = system: Acinetobacter baumannii; assay: Antimicrobial activity against Acinetobacter baumannii HPA 4737 harboring beta-lactamase OXA-26 by broth dilution method; type: functional
# [35] = system: Pseudomonas aeruginosa; assay: Antimicrobial activity against Pseudomonas aeruginosa BA(C2-107) selected after 25 ug/ml of compound exposure by broth dilution method; type: functional
# [36] = system: Acinetobacter baumannii; assay: Antimicrobial activity against Acinetobacter baumannii HPA74510 harboring beta-lactamase IMP-4 by broth dilution method; type: functional
# [37] = system: Stenotrophomonas maltophilia; assay: Antimicrobial activity against Stenotrophomonas maltophilia B715 harboring beta-lactamase L1and L2 by broth dilution method; type: functional
# [38] = system: Pseudomonas aeruginosa; assay: microbe, parasite or virus in culture; conditions: BA
# Description: Antimicrobial activity against Pseudomonas aeruginosa BA harboring beta-lactamase Class C by broth dilution method
# [39] = system: Pseudomonas aeruginosa; assay: Antimicrobial activity against mexAB-oprM protein and mexZ deficient Pseudomonas aeruginosa PAO267 by broth dilution method; type: functional
# [40] = system: Pseudomonas aeruginosa; assay: Antimicrobial activity against Pseudomonas aeruginosa 1937E harboring beta-lactamase PSE-4 and class C enzymes by broth dilution method; type: functional
# [41] = system: Escherichia coli; assay: Antimicrobial activity against Escherichia coli A harboring beta-lactamase CTX-M 15 by broth dilution method; type: functional
# [42] = system: Klebsiella pneumoniae; assay: Antimicrobial activity against Klebsiella pneumoniae 26768WU harboring beta-lactamase SHV-5 by broth dilution method; type: functional
# [43] = system: Enterobacter cloacae; assay: Antimicrobial activity against Enterobacter cloacae by broth dilution method; type: functional
# [44] = system: Pseudomonas aeruginosa; assay: Antimicrobial activity against Pseudomonas aeruginosa 1973E harboring beta-lactamase PSE-1 and class C enzymes by broth dilution method; type: functional
# [45] = system: Pseudomonas aeruginosa; assay: Antimicrobial activity against Pseudomonas aeruginosa BA(C1-106) selected after 25 ug/ml of compound exposure by broth dilution method; type: functional
# [46] = system: Pseudomonas aeruginosa; assay: microbe, parasite or virus in culture; conditions: PAO1
# Description: Antimicrobial activity against Pseudomonas aeruginosa PAO1 by broth dilution method
# [47] = system: Enterobacter cloacae; assay: Antimicrobial activity against Enterobacter cloacae S4741B assessed as number of passages required for MIC to rise above 4 times original MIC; type: functional
# [48] = system: Escherichia coli; assay: Antimicrobial activity against Escherichia coli K802N harboring beta-lactamase TEM-3 by broth dilution method; type: functional
# [49] = system: Pseudomonas aeruginosa; assay: Antimicrobial activity against mexAB-oprM, mexCD-oprJ, mexEF-oprN, mexJK, mexXY, opmH and pscC gene deficient Pseudomonas aeruginosa PAO750 by broth dilution method; type: functional
# [50] = system: Escherichia coli; assay: Antimicrobial activity against Escherichia coli HB101 harboring beta-lactamase TEM-5 by broth dilution method; type: functional
# [51] = system: Serratia marcescens; assay: Antimicrobial activity against Serratia marcescens 1T9 harboring beta-lactamase Class C by broth dilution method; type: functional
# [52] = system: Providencia rettgeri; assay: Antimicrobial activity against Providencia rettgeri J96 harboring beta-lactamase IMP-1 by broth dilution method; type: functional
# [53] = system: Klebsiella oxytoca; assay: Antimicrobial activity against Klebsiella oxytoca 1028E harboring beta-lactamase K1 by broth dilution method; type: functional
# [54] = system: Enterobacter cloacae; assay: Antimicrobial activity against Enterobacter cloacae 908R harboring beta-lactamase AmpC by broth dilution method; type: functional
# [55] = system: Pseudomonas aeruginosa; assay: Antimicrobial activity against Pseudomonas aeruginosa 621 assessed as number of passages required for MIC to rise above 4 times original MIC; type: functional
# [56] = system: Pseudomonas aeruginosa; assay: Antimicrobial activity against Pseudomonas aeruginosa B4 by broth dilution method; type: functional
# [57] = system: Pseudomonas aeruginosa; assay: Antimicrobial activity against Pseudomonas aeruginosa HPA101-1477 harboring beta-lactamase IMP-1 by broth dilution method; type: functional
# [58] = system: Pseudomonas aeruginosa; assay: Antimicrobial activity against mexAB-oprM protein and mexCD-oprJ deficient Pseudomonas aeruginosa PAO238 by broth dilution method; type: functional
# [59] = system: Klebsiella pneumoniae; assay: Antimicrobial activity against Klebsiella pneumoniae YC harboring beta-lactamase KPC-2,TEM-1and SHV-2 by broth dilution method; type: functional
# [60] = system: Acinetobacter baumannii; assay: Antimicrobial activity against Acinetobacter baumannii HPA I-16 harboring beta-lactamase OXA-27 by broth dilution method; type: functional
# [61] = system: Escherichia coli; assay: Antimicrobial activity against Escherichia coli CF102 harboring beta-lactamase TEM-3 by broth dilution method; type: functional
# [62] = system: Pseudomonas aeruginosa; assay: Antimicrobial activity against oprD protein deficient Pseudomonas aeruginosa C2 by broth dilution method; type: functional
# [63] = system: Serratia marcescens; assay: Antimicrobial activity against Serratia marcescens S6 harboring beta-lactamase SME-1.AmpC by broth dilution method; type: functional
smiles,measurement,setting,value
CO/N=C(\C(=O)N[C@@H]1C(=O)N2C(C(=O)[O-])=C(C[N+]3(C)CCCC3)CS[C@H]12)c1csc(N)n1,Activity,[1],2 passages
same,MIC50,[2],16 µg/mL
same,MIC90,[2],32 µg/mL
same,MIC50,[3],16 µg/mL
same,MIC90,[3],> 32 µg/mL
same,MIC50,[4],0.125 µg/mL
same,MIC90,[4],1 µg/mL
same,MIC50,[5],1 µg/mL
same,MIC90,[5],2 µg/mL
same,MIC50,[6],0.125 µg/mL
same,MIC90,[6],1 µg/mL
same,MIC50,[7],≤ 0.06 µg/mL
same,MIC90,[7],> 32 µg/mL
same,MIC50,[8],4 µg/mL
same,MIC90,[9],16 µg/mL
same,Activity,[10],inactive
same,MIC50,[11],2 µg/mL
same,MIC90,[11],4 µg/mL
same,MIC50,[12],4 µg/mL
same,MIC90,[12],> 32 µg/mL
same,MIC50,[13],32 µg/mL
same,MIC90,[13],> 32 µg/mL
same,MIC50,[14],1 µg/mL
same,MIC90,[14],4 µg/mL
same,Activity,[15],1 passages
same,MIC50,[16],8 µg/mL
same,MIC90,[16],16 µg/mL
same,MIC50,[17],8 µg/mL
same,MIC90,[17],> 32 µg/mL
same,Activity,[18],inactive
same,Activity,[19],14 passages
same,MIC50,[20],≤ 0.06 µg/mL
same,MIC90,[20],> 32 µg/mL
same,Activity,[21],1 passages
same,MIC50,[22],0.125 µg/mL
same,MIC90,[22],1 µg/mL
C[C@@H](O)[C@H]1C(=O)N2C(C(=O)O)=C(SCCNC=N)C[C@H]12 [IMIPENEM ANHYDROUS],Activity,[1],4 passages
same,MIC,[23],> 32 µg/mL
same,MIC,[24],1 µg/mL
same,MIC50,[2],4 µg/mL
same,MIC90,[2],> 32 µg/mL
same,MIC,[3],> 32 µg/mL
same,MIC50,[3],> 32 µg/mL
same,MIC90,[3],> 32 µg/mL
same,MIC,[25],> 32 µg/mL
same,MIC,[26],4 µg/mL
same,MIC,[27],0.5 µg/mL
same,MIC,[28],> 32 µg/mL
same,MIC,[29],1 µg/mL
same,MIC50,[4],4 µg/mL
same,MIC90,[4],8 µg/mL
same,MIC,[30],> 32 µg/mL
same,Activity,[31],9 passages
same,MIC,[32],4 µg/mL
same,MIC50,[5],2 µg/mL
same,MIC90,[5],8 µg/mL
same,MIC,[33],> 32 µg/mL
same,MIC,[34],> 32 µg/mL
same,MIC50,[6],4 µg/mL
same,MIC90,[6],8 µg/mL
same,MIC50,[7],4 µg/mL
same,MIC90,[7],16 µg/mL
same,MIC,[35],1 µg/mL
same,MIC,[36],16 µg/mL
same,MIC,[37],> 32 µg/mL
same,MIC,[38],1 µg/mL
same,MIC,[39],1 µg/mL
same,MIC,[40],2 µg/mL
same,MIC,[41],0.25 µg/mL
same,MIC50,[9],2 µg/mL
same,MIC90,[9],16 µg/mL
same,Activity,[10],2 passages
same,MIC,[42],1 µg/mL
same,MIC50,[43],2 µg/mL
same,MIC90,[43],4 µg/mL
same,MIC,[44],2 µg/mL
same,MIC,[45],1 µg/mL
same,MIC,[46],2 µg/mL
same,Activity,[47],3 passages
same,MIC,[48],32 µg/mL
same,MIC50,[11],0.25 µg/mL
same,MIC90,[11],1 µg/mL
same,MIC,[49],2 µg/mL
same,MIC50,[12],1 µg/mL
same,MIC90,[12],16 µg/mL
same,MIC,[50],0.25 µg/mL
same,MIC50,[13],0.25 µg/mL
same,MIC90,[13],32 µg/mL
same,MIC50,[14],1 µg/mL
same,MIC90,[14],2 µg/mL
same,MIC,[51],1 µg/mL
same,MIC,[52],> 32 µg/mL
same,MIC,[53],0.5 µg/mL
same,MIC,[54],1 µg/mL
same,Activity,[15],inactive
same,Activity,[55],inactive
same,MIC,[56],1 µg/mL
same,MIC50,[16],32 µg/mL
same,MIC90,[16],> 32 µg/mL
same,MIC,[57],> 32 µg/mL
same,MIC50,[17],0.25 µg/mL
same,MIC90,[17],0.5 µg/mL
same,MIC,[58],2 µg/mL
same,Activity,[18],1 passages
same,MIC,[59],> 32 µg/mL
same,Activity,[19],17 passages
same,MIC,[60],> 32 µg/mL
same,MIC50,[20],4 µg/mL
same,MIC90,[20],16 µg/mL
same,MIC,[61],0.5 µg/mL
same,MIC,[62],32 µg/mL
same,Activity,[21],inactive
same,MIC50,[22],4 µg/mL
same,MIC90,[22],8 µg/mL
same,MIC,[63],> 32 µg/mL
